Laboratory results published in US20250340557A1, “PYRIMIDINE DERIVATIVE” (ASKA PHARMACEUTICAL CO., LTD., priority 2022, published 2025).

molecular target: T1, human mPGES-1 (Homo sapiens, UniProt O14684); assay: Test for mPGES-1 inhibitory activity (microsomal enzyme, PGE2 EIA); assay type: biochemical; details: microsomes from COS-1 cells transfected with human mPGES-1 cDNA; substrate PGH2 1 μM; 4° C., 4 minutes; PGE2 measured by EIA; read-out: h mPGES1 IC50
T1 construct: made in house; host or cells: COS-1 cells (transient transfection; microsomal fraction used as enzyme)
T1 sequence (O14684 1-152): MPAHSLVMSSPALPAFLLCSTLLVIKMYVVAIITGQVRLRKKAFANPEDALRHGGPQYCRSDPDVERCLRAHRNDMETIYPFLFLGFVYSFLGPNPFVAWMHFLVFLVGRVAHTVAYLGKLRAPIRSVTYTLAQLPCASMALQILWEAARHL
Summary of the method: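 Enzyme source was microsomes from COS-1 cells transiently expressing human mPGES-1, in sodium phosphate pH 7.2 with 2.5 mM GSH, 1 mM EDTA and 2% DMSO final. After a 15 min preincubation with compound at 4 °C, 1 μM PGH2 (final) reacted for 4 min at 4 °C.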

Row | IC50 [nM] | SMILES
1 | 5.2 | O=C(NCc1ccc(C(F)(F)F)c(-c2nc(C(F)F)cc(=O)[nH]2)c1F)C1CCN(c2ccc(Cl)c(Cl)c2)CC1 [Example 84, 1-(3,4-dichlorophenyl)-N-{3-[4-(difluoromethyl)-6-oxo-1,6-dihydropyrimidin-2-yl]-2-fluoro-4-(trifluoromethyl)benzyl}piperidine-4-carboxamide]
2 | 0.61 | O=C(NCc1ccc(C(F)(F)F)c(-c2nc(C(F)F)cc(=O)[nH]2)c1F)C1CCN(c2ccc(OC(F)(F)F)cc2)CC1 [Example 85, N-{3-[4-(difluoromethyl)-6-oxo-1,6-dihydropyrimidin-2-yl]-2-fluoro-4-(trifluoromethyl)benzyl}-1-[4-(trifluoromethoxy)phenyl]piperidine-4-carboxamide]
3 | < 1 | Cc1cc(=O)[nH]c(-c2c(C(F)(F)F)ccc(CNC(=O)C3CCN(c4ccc(Cl)c(Cl)c4)CC3)c2F)n1 [Example 86, 1-(3,4-dichlorophenyl)-N-[2-fluoro-3-(4-methyl-6-oxo-1,6-dihydropyrimidin-2-yl)-4-(trifluoromethyl)benzyl]piperidine-4-carboxamide]
4 | 39 | Cc1cc(=O)[nH]c(-c2c(C(F)(F)F)ccc(CNC(=O)C3CCN(c4ccc(OC(F)(F)F)cc4)CC3)c2F)n1 [Example 87, N-[2-fluoro-3-(4-methyl-6-oxo-1,6-dihydropyrimidin-2-yl)-4-(trifluoromethyl)benzyl]-1-[4-(trifluoromethoxy)phenyl]piperidine-4-carboxamide]
5 | < 1 | O=C(NCc1ccc(C(F)(F)F)c(-c2nc(C(F)(F)F)cc(=O)[nH]2)c1F)C1CCN(c2ccc(F)c(Cl)c2)CC1 [Example 88, 1-(3-chloro-4-fluorophenyl)-N-{2-fluoro-3-[6-oxo-4-(trifluoromethyl)-1,6-dihydropyrimidin-2-yl]-4-(trifluoromethyl)benzyl}piperidine-4-carboxamide]
6 | < 1 | O=C(NCc1ccc(C(F)(F)F)c(-c2nc3c(c(=O)[nH]2)CCC3)c1F)C1CCN(c2ccc(Cl)cc2)CC1 [Example 89, 1-(4-chlorophenyl)-N-[2-fluoro-3-(4-oxo-4,5,6,7-tetrahydro-3H-cyclopenta[d]pyrimidin-2-yl)-4-(trifluoromethyl)benzyl]piperidine-4-carboxamide]
7 | 1.6 | CCc1nc(-c2c(C(F)(F)F)ccc(CNC(=O)C3CCN(c4ccc(C#N)cc4Cl)CC3)c2F)[nH]c(=O)c1F [Example 90, 1-(2-chloro-4-cyanophenyl)-N-[3-(4-ethyl-5-fluoro-6-oxo-1,6-dihydropyrimidin-2-yl)-2-fluoro-4-(trifluoromethyl)benzyl]piperidine-4-carboxamide]
8 | 1.4 | COc1cc(N2CCC(C(=O)NCc3ccc(C(F)(F)F)c(-c4nc(C)cc(=O)[nH]4)c3F)CC2)ccc1Cl [Example 93, 1-(4-chloro-3-methoxyphenyl)-N-[2-fluoro-3-(4-methyl-6-oxo-1,6-dihydropyrimidin-2-yl)-4-(trifluoromethyl)benzyl]piperidine-4-carboxamide]
9 | 13 | Cc1cc(=O)[nH]c(-c2c(C(F)(F)F)ccc(CNC(=O)C3CCN(c4cccc(C(F)(F)F)c4)CC3)c2F)n1 [Example 94, N-[2-fluoro-3-(4-methyl-6-oxo-1,6-dihydropyrimidin-2-yl)-4-(trifluoromethyl)benzyl]-1-[3-(trifluoromethyl)phenyl]piperidine-4-carboxamide]
10 | < 1 | Cc1cc(=O)[nH]c(-c2c(C(F)(F)F)ccc(CNC(=O)C3CCN(c4ccc(Cl)c(F)c4)CC3)c2F)n1 [Example 95, 1-(4-chloro-3-fluorophenyl)-N-[2-fluoro-3-(4-methyl-6-oxo-1,6-dihydropyrimidin-2-yl)-4-(trifluoromethyl)benzyl]piperidine-4-carboxamide]
11 | < 1 | Cc1nc(-c2c(C(F)(F)F)ccc(CNC(=O)C3CCN(c4cccc(C(F)(F)F)c4)CC3)c2F)[nH]c(=O)c1F [Example 97, N-[2-fluoro-3-(5-fluoro-4-methyl-6-oxo-1,6-dihydropyrimidin-2-yl)-4-(trifluoromethyl)benzyl]-1-[3-(trifluoromethyl)phenyl]piperidine-4-carboxamide]
12 | 19 | CCc1cc(=O)[nH]c(-c2c(C(F)(F)F)ccc(CNC(=O)C3CCN(c4ccc(Cl)c(OC)c4)CC3)c2F)n1 [Example 98, 1-(4-chloro-3-methoxyphenyl)-N-[3-(4-ethyl-6-oxo-1,6-dihydropyrimidin-2-yl)-2-fluoro-4-(trifluoromethyl)benzyl]piperidine-4-carboxamide]
13 | < 1 | O=c1cc(C(F)(F)F)nc(-c2c(C(F)(F)F)ccc(CNC(=O)[C@H]3CC[C@H](OCc4ccccc4Cl)CC3)c2F)[nH]1 [Example 99, trans-4-[(2-chlorobenzyl)oxy]-N-{2-fluoro-3-[6-oxo-4-(trifluoromethyl)-1,6-dihydropyrimidin-2-yl]-4-(trifluoromethyl)benzyl}cyclohexane-1-carboxamide]
14 | < 1 | O=c1cc(C(F)(F)F)nc(-c2c(C(F)(F)F)ccc(CNC(=O)[C@H]3CC[C@H](OCc4cccc(Cl)c4)CC3)c2F)[nH]1 [Example 100, trans-4-[(3-chlorobenzyl)oxy]-N-{2-fluoro-3-[6-oxo-4-(trifluoromethyl)-1,6-dihydropyrimidin-2-yl]-4-(trifluoromethyl)benzyl}cyclohexane-1-carboxamide]
15 | < 1 | O=c1cc(C(F)(F)F)nc(-c2c(C(F)(F)F)ccc(CNC(=O)[C@H]3CC[C@H](OCc4ccc(Cl)cc4)CC3)c2F)[nH]1 [Example 101, trans-4-[(4-chlorobenzyl)oxy]-N-{2-fluoro-3-[6-oxo-4-(trifluoromethyl)-1,6-dihydropyrimidin-2-yl]-4-(trifluoromethyl)benzyl}cyclohexane-1-carboxamide]
16 | < 1 | Cc1nc(-c2c(C(F)(F)F)ccc(CNC(=O)[C@H]3CC[C@H](OCc4ccccc4Cl)CC3)c2F)[nH]c(=O)c1F [Example 102, trans-4-[(2-chlorobenzyl)oxy]-N-[2-fluoro-3-(5-fluoro-4-methyl-6-oxo-1,6-dihydropyrimidin-2-yl)-4-(trifluoromethyl)benzyl]cyclohexane-1-carboxamide]
17 | < 1 | O=c1cc(C(F)F)nc(-c2c(C(F)(F)F)ccc(CNC(=O)[C@H]3CC[C@H](OCc4ccccc4Cl)CC3)c2F)[nH]1 [Example 103, trans-4-[(2-chlorobenzyl)oxy]-N-{3-[4-(difluoromethyl)-6-oxo-1,6-dihydropyrimidin-2-yl]-2-fluoro-4-(trifluoromethyl)benzyl}cyclohexane-1-carboxamide]
18 | 1.2 | Cc1nc(-c2c(C(F)(F)F)ccc(CNC(=O)[C@H]3CC[C@H](OCc4ccc(Cl)cc4)CC3)c2F)[nH]c(=O)c1F [Example 104, trans-4-[(4-chlorobenzyl)oxy]-N-[2-fluoro-3-(5-fluoro-4-methyl-6-oxo-1,6-dihydropyrimidin-2-yl)-4-(trifluoromethyl)benzyl]cyclohexane-1-carboxamide]
19 | 23 | Cc1cc(=O)[nH]c(-c2c(C(F)(F)F)ccc(CNC(=O)[C@H]3CC[C@H](OCc4ccc(Cl)cc4)CC3)c2F)n1 [Example 105, trans-4-[(4-chlorobenzyl)oxy]-N-[2-fluoro-3-(4-methyl-6-oxo-1,6-dihydropyrimidin-2-yl)-4-(trifluoromethyl)benzyl]cyclohexane-1-carboxamide]
20 | 13 | Cc1cc(=O)[nH]c(-c2c(C(F)(F)F)ccc(CNC(=O)[C@H]3CC[C@H](OCc4ccc(F)c(F)c4)CC3)c2F)n1 [Example 107, trans-4-[(3,4-difluorobenzyl)oxy]-N-[2-fluoro-3-(4-methyl-6-oxo-1,6-dihydropyrimidin-2-yl)-4-(trifluoromethyl)benzyl]cyclohexane-1-carboxamide]
21 | 38 | Cc1cc(=O)[nH]c(-c2c(C(F)(F)F)ccc(CNC(=O)[C@H]3CC[C@H](OCc4ccccc4Cl)CC3)c2F)n1 [Example 108, trans-4-[(2-chlorobenzyl)oxy]-N-[2-fluoro-3-(4-methyl-6-oxo-1,6-dihydropyrimidin-2-yl)-4-(trifluoromethyl)benzyl]cyclohexane-1-carboxamide]
22 | 10 | Cc1cc(=O)[nH]c(-c2c(C(F)(F)F)ccc(CNC(=O)[C@H]3CC[C@H](OCc4cccc(C(F)(F)F)c4)CC3)c2F)n1 [Example 109, trans-N-[2-fluoro-3-(4-methyl-6-oxo-1,6-dihydropyrimidin-2-yl)-4-(trifluoromethyl)benzyl]-4-{[3-(trifluoromethyl)benzyl]oxy}cyclohexane-1-carboxamide]
23 | 19 | Cc1cc(=O)[nH]c(-c2c(C(F)(F)F)ccc(CNC(=O)[C@H]3CC[C@H](OCc4cccc(Cl)c4)CC3)c2F)n1 [Example 111, trans-4-[(3-chlorobenzyl)oxy]-N-[2-fluoro-3-(4-methyl-6-oxo-1,6-dihydropyrimidin-2-yl)-4-(trifluoromethyl)benzyl]cyclohexane-1-carboxamide]
24 | 29 | O=c1cc(C(F)(F)F)nc(-c2c(C(F)(F)F)ccc(CNC(=O)[C@H]3CC[C@H](OCc4cccc(C(F)(F)F)c4)CC3)c2F)[nH]1 [Example 112, trans-N-{2-fluoro-3-[6-oxo-4-(trifluoromethyl)-1,6-dihydropyrimidin-2-yl]-4-(trifluoromethyl)benzyl}-4-{[3-(trifluoromethyl)benzyl]oxy}cyclohexane-1-carboxamide]
25 | 5.2 | O=c1cc(C(F)(F)F)nc(-c2c(C(F)(F)F)ccc(CNC(=O)[C@H]3CC[C@H](OCc4ccc(F)cc4F)CC3)c2F)[nH]1 [Example 114, trans-4-[(2,4-difluorobenzyl)oxy]-N-{2-fluoro-3-[6-oxo-4-(trifluoromethyl)-1,6-dihydropyrimidin-2-yl]-4-(trifluoromethyl)benzyl}cyclohexane-1-carboxamide]
